The experiment addresses human NaV 1.8 (Homo sapiens, UniProt Q9Y5Y9). Kind of experiment: E-VIPR assay detecting and measuring NaV inhibition properties. In kind it is cell-based. As to conditions: HEK cells expressing a truncated form of human NaV 1.8; electrical stimulation, membrane potential FRET dyes. The procedure, abridged: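 HEK cells expressing truncated full-activity NaV 1.8, co-transduced with KIR2.1 BacMam, seeded 16-20 h before assay. Electrical stimulation with FRET membrane-potential dyes (CC2-DMPE/DiSBAC6(3)) in HEPES-buffered bath solutions; 25% human serum final.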
human NaV 1.8, sequence (Q9Y5Y9 126-1722 limits assumed): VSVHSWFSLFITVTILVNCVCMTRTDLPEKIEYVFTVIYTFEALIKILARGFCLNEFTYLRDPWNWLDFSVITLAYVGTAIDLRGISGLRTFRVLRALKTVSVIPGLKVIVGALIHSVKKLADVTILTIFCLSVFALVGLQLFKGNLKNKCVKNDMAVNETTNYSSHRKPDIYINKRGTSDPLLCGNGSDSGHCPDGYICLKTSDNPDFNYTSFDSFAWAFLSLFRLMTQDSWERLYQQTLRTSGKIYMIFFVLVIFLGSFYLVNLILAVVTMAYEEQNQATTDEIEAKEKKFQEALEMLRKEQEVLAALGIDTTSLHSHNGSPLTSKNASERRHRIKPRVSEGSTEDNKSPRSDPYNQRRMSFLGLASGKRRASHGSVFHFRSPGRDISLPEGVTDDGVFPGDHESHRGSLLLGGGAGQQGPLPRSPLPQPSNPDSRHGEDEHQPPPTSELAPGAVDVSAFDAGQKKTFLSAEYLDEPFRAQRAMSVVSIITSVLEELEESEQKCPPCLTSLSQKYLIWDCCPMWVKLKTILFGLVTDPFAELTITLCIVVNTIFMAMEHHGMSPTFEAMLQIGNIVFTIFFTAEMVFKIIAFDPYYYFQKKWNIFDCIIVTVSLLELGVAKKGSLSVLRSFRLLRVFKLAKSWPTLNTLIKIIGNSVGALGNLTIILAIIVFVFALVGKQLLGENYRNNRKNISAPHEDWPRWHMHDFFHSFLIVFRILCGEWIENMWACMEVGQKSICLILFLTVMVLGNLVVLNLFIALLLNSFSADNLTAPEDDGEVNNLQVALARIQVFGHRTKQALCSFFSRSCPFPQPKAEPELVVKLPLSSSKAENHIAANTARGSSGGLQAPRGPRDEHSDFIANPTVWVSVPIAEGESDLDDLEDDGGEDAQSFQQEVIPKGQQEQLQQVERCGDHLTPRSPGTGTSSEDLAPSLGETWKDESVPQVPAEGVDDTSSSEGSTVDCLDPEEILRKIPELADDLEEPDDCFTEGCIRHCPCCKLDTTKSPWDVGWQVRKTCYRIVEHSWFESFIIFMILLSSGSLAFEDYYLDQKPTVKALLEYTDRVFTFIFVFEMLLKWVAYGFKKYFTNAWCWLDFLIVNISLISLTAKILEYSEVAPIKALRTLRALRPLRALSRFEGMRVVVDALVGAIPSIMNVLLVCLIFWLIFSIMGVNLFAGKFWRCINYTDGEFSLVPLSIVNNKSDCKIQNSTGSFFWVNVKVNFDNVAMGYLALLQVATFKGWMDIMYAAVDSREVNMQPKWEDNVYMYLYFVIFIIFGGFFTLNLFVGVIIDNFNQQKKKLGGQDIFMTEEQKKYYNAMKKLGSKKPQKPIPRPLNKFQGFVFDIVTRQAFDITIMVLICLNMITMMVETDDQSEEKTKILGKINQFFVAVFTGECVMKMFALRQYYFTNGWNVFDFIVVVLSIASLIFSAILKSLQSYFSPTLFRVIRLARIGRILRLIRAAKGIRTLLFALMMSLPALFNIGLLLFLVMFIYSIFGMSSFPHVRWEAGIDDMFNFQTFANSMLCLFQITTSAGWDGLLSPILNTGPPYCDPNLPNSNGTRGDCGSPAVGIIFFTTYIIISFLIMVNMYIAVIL
For the molecule `COc1c([C@@H]2C[C@](C)(C(F)(F)F)O[C@H]2C(=O)Nc2ccc([C@H](O)CO)nc2)ccc(F)c1F` (single isomer, unassigned) [Compound 26, rel-(2R,3S,5R)-3-(3,4-difluoro-2-methoxyphenyl)-N-(6-((S*)-1,2-dihydroxyethyl)pyridin-3-yl)-5-methyl-5-(trifluoromethyl)tetrahydrofuran-2-carboxamide], the IC50 is 100 to 1000 nM.

In the case of `COc1c(C2C(C(=O)Nc3ccc(C(O)CO)nc3)OC(C)(C(F)(F)F)C2C)ccc(F)c1C` (single isomer, unassigned) [Compound 44, rel-(2S,3R,4R,5S)-N-(6-((S*)-1,2-dihydroxyethyl)138yridine-3-yl)-3-(4-fluoro-2-methoxy-3-methylphenyl)-4,5-dimethyl-5-(trifluoromethyl)tetrahydrofuran-2-carboxamide], the IC50 is ≥ 1000 nM.

In the case of `C[C@@]1(C(F)(F)F)C[C@H](c2ccc(OC(F)(F)F)cc2Cl)[C@@H](C(=O)Nc2ccc([C@@H](O)CO)nc2)O1` (single isomer, unassigned) [Compound 61, rel-(2S,3R,5S)-3-(2-chloro-4-(trifluoromethoxy)phenyl)-N-(6-((R*)-1,2-dihydroxyethyl)pyridin-3-yl)-5-methyl-5-(trifluoromethyl)tetrahydrofuran-2-carboxamide], the IC50 was ≥ 1000 nM. `COc1c([C@H]2[C@H](C(=O)Nc3ccc(C(C)O)nc3)O[C@@](C)(C(F)(F)F)[C@H]2C)ccc(F)c1C(F)F` (relative stereo) [Compound 56, rel-(2R,3S,4S,5R)-3-(3-(difluoromethyl)-4-fluoro-2-methoxyphenyl)-N-(6-(1-hydroxyethyl)pyridin-3-yl)-4,5-dimethyl-5-(trifluoromethyl)tetrahydrofuran-2-carboxamide] had an IC50 of 10 to 100 nM. Then `Cc1c([C@@H]2[C@@H](C)[C@@](C)(C(F)(F)F)O[C@H]2C(=O)Nc2ccc([C@@H](O)CO)nc2)ccc(F)c1F` (single isomer, unassigned) [Compound 67, rel-(2R,3S,4R,5S)-3-(3,4-difluoro-2-methylphenyl)-N-(6-((R*)-1,2-dihydroxyethyl)pyridin-3-yl)-4,5-dimethyl-5-(trifluoromethyl)tetrahydrofuran-2-carboxamide], with ≥ 1000 nM; and `COc1c([C@H]2[C@H](C(=O)Nc3cnc(CO)c(F)c3)O[C@@](C)(C(F)(F)F)[C@H]2C)ccc(F)c1F` [Compound 83, (2R,3S,4S,5R)-3-(3,4-difluoro-2-methoxyphenyl)-N-(5-fluoro-6-(hydroxymethyl)pyridin-3-yl)-4,5-dimethyl-5-(trifluoromethyl)tetrahydrofuran-2-carboxamide], with < 10 nM.

As to `COc1c([C@H]2[C@H](C(=O)Nc3ccc([C@H](O)CO)[n+]([O-])c3)O[C@@](C)(C(F)(F)F)[C@H]2C)ccc(F)c1C` (relative stereo) [Compound 59, rel-2-((S*)-1,2-dihydroxyethyl)-5-((2R,3S,4S,5R)-3-(4-fluoro-2-methoxy-3-methylphenyl)-4,5-dimethyl-5-(trifluoromethyl)tetrahydrofuran-2-carboxamido)pyridine 1-oxide], the half-inhibitory concentration (IC50) lay in the range of 10 to 100 nM.

With `Cc1c([C@@H]2[C@@H](C)[C@@](C)(C(F)(F)F)O[C@H]2C(=O)Nc2ccc(CO)nc2)ccc(F)c1F` (single isomer, unassigned) [Compound 77], the IC50 was ≥ 1000 nM. Under `COc1c([C@H]2C[C@@](C)(C(F)(F)F)O[C@@H]2C(=O)Nc2cnc(C(O)CO)nc2)ccc(F)c1F` (single isomer, unassigned) [Compound 28] stands ≥ 1000 nM.

Take `COc1c([C@H]2[C@H](C(=O)Nc3ccc(CO)nc3)O[C@@](C)(C(F)(F)F)[C@H]2C)ccc(OC(F)F)c1F` [Compound 18, (2R,3S,4S,5R)-3-(4-(difluoromethoxy)-3-fluoro-2-methoxyphenyl)-N-(6-(hydroxymethyl)pyridin-3-yl)-4,5-dimethyl-5-(trifluoromethyl)tetrahydrofuran-2-carboxamide]: the half-inhibitory concentration (IC50) was in the range of 10 to 100 nM. Under `Cc1c([C@H]2[C@H](C(=O)Nc3ccc(CO)nc3)O[C@@](C)(C(F)(F)F)[C@H]2C)ccc(F)c1F` (single isomer, unassigned) [Compound 80] stands < 10 nM; under `CCOc1c([C@@H]2C[C@](C)(C(F)(F)F)O[C@H]2C(=O)Nc2ccc([C@@H](O)CO)nc2)ccc(F)c1F` (single isomer, unassigned) [Compound 35, rel-(2R,3S,5R)-N-(6-((R*)-1,2-dihydroxyethyl)pyridin-3-yl)-3-(2-ethoxy-3,4-difluorophenyl)-5-methyl-5-(trifluoromethyl)tetrahydrofuran-2-carboxamide], 10 to 100 nM. Consider `CCOc1ccc([C@H]2[C@H](C(=O)Nc3ccc([C@@H](O)CO)nc3)O[C@@](C)(C(F)(F)F)[C@H]2C)c2c1OC(F)(F)O2` (single isomer, unassigned) [Compound 75, rel-(2R,3S,4S,5R)-N-(6-((R*)-1,2-dihydroxyethyl)pyridin-3-yl)-3-(7-ethoxy-2,2-difluorobenzo[d][1,3]dioxol-4-yl)-4,5-dimethyl-5-(trifluoromethyl)tetrahydrofuran-2-carboxamide], for which the IC50 is ≥ 1000 nM.

As to `[2H]C([2H])([2H])Oc1c([C@H]2[C@H](C(=O)Nc3ccc([C@@H](O)CO)nc3)O[C@@](C)(C(F)(F)F)[C@H]2C)ccc(F)c1F` [Compound 8, (2R,3S,4S,5R)-3-(3,4-difluoro-2-(methoxy-d3)phenyl)-N-(6-((R)-1,2-dihydroxyethyl)pyridin-3-yl)-4,5-dimethyl-5-(trifluoromethyl)tetrahydrofuran-2-carboxamide], the IC50 is < 10 nM. Then `Cc1c([C@@H]2[C@@H](C(=O)Nc3ccc([C@@H](O)CO)nc3)O[C@](C)(C(F)(F)F)[C@@H]2C)ccc(F)c1F` (single isomer, unassigned) [Compound 68, rel-(2S,3R,4R,5S)-3-(3,4-difluoro-2-methylphenyl)-N-(6-((R*)-1,2-dihydroxyethyl)pyridin-3-yl)-4,5-dimethyl-5-(trifluoromethyl)tetrahydrofuran-2-carboxamide], with ≥ 1000 nM; and `COc1c([C@H]2[C@H](C(=O)Nc3ccc([C@H](O)CO)nc3)O[C@@](C)(C(F)(F)F)[C@H]2C)ccc(F)c1F` (single isomer, unassigned) [Compound 2], with < 10 nM; and `CCOc1c([C@H]2C[C@@](C)(C(F)(F)F)O[C@@H]2C(=O)Nc2ccc([C@@H](O)CO)nc2)ccc(F)c1F` (single isomer, unassigned) [Compound 34, rel-(2S,3R,5S)-N-(6-((R*)-1,2-dihydroxyethyl)pyridin-3-yl)-3-(2-ethoxy-3,4-difluorophenyl)-5-methyl-5-(trifluoromethyl)tetrahydrofuran-2-carboxamide], with ≥ 1000 nM. In turn, `COc1c([C@H]2[C@H](C(=O)Nc3cnc(CO)nc3)O[C@@](C)(C(F)(F)F)[C@H]2C)ccc(OC(F)F)c1F` [Compound 19, (2R,3S,4S,5R)-3-(4-(difluoromethoxy)-3-fluoro-2-methoxyphenyl)-N-(2-(hydroxymethyl)pyrimidin-5-yl)-4,5-dimethyl-5-(trifluoromethyl)tetrahydrofuran-2-carboxamide] had an IC50 of 10 to 100 nM. Consider `COc1nc(C(F)F)ccc1[C@@H]1[C@@H](C(=O)Nc2ccc(CO)nc2)O[C@](C)(C(F)(F)F)[C@@H]1C` (stereo in doubt) [Compound 89, rel-(2S,3R,4R,5S)-3-(6-(difluoromethyl)-2-methoxypyridin-3-yl)-N-(6-(hydroxymethyl)pyridin-3-yl)-4,5-dimethyl-5-(trifluoromethyl)tetrahydrofuran-2-carboxamide], for which the half-maximal inhibitory concentration (IC50) is ≥ 1000 nM. Under `COc1c([C@H]2[C@H](C(=O)Nc3ccc([C@H](O)CO)nc3)O[C@@](C)(C(F)(F)F)[C@H]2C)ccc(F)c1C` (single isomer, unassigned) [Compound 45, rel-(2R,3S,4S,5R)-N-(6-((S*)-1,2-dihydroxyethyl)pyridin-3-yl)-3-(4-fluoro-2-methoxy-3-methylphenyl)-4,5-dimethyl-5-(trifluoromethyl)tetrahydrofuran-2-carboxamide] stands 10 to 100 nM; under `CCOc1c([C@@H]2C[C@](C)(C(F)(F)F)O[C@H]2C(=O)Nc2ccc([C@H](O)CO)nc2)ccc(F)c1F` (single isomer, unassigned) [Compound 33, rel-(2R,3S,5R)-N-(6-((S*)-1,2-dihydroxyethyl)pyridin-3-yl)-3-(2-ethoxy-3,4-difluorophenyl)-5-methyl-5-(trifluoromethyl)tetrahydrofuran-2-carboxamide], 100 to 1000 nM; under `COc1c(C2C(C(=O)Nc3ccc(C(O)CO)nc3)OC(C)(C(F)(F)F)C2C)ccc(F)c1C(F)F` (single isomer, unassigned) [Compound 51], < 10 nM. Under `COc1c([C@H]2[C@H](C(=O)Nc3ccc([C@@H](O)CO)nc3)O[C@@](C)(C(F)(F)F)[C@H]2C)cccc1C(F)(F)F` (single isomer, unassigned) [Compound 70, rel-(2R,3S,4S,5R)-N-(6-((R*)-1,2-dihydroxyethyl)pyridin-3-yl)-3-(2-methoxy-3-(trifluoromethyl)phenyl)-4,5-dimethyl-5-(trifluoromethyl)tetrahydrofuran-2-carboxamide] stands < 10 nM.

What is called IC50 is the concentration that inhibits the measured activity by half. The low end stands for inhibition by little substance, the high end for a need for much substance.
